The values that follow come from US20080213248A1, “Methods and Systems for Treating Asthma and Other Respiratory Diseases” (UNIVERSITY OF FLORIDA RESEARCH FOUNDATION, INC., priority 2004, published 2008).

Data set [1] addresses TRPM8 receptors. The settings on record: previous in vitro studies; read-out: antagonistic potencies (IC50) for TRPM8 receptors; cited from earlier work.
Data set [2] has as its target T1, TRPM8 receptors (Rattus norvegicus, UniProt Q8R455).
T1 construct: increase in number of TRPM8-expressing neurons in cell culture when in the presence of nerve growth factor (NGF); endogenous in cells; host or cells: cultured sensory neurons
Briefly: TRPM8 expression in cultured sensory neurons in the presence of NGF. In kind it is cell-based. The settings on record: NGF present. The text has this:
Inflammation in lung tissues often can result in the increases the levels of nerve growth factor (NGF). […] Upregulation of TRPM8 receptors on these nerves can sensitize their responses to cold stimulation. FIGS. 8a and 8b illustrate the numbers of TRPM8 expression neurons and the responsiveness of these neurons to the TRPM8 ligand menthol. Specifically, FIG. 8a is a graphical illustration of an increase in number of TRPM8-expressing neurons in cell culture when in the presence of nerve growth factor (NGF). […] is a graphical illustration of the response of TRPM8-expressing neurons to the TRPM8 receptor agonist menthol when cultured in the presence or absence of NGF. The one day cultures were used in the absence of NGF.
Inflammatory reactions in bronchopulmonary tissues of asthma animals are known to result in an increased level of nerve growth factor (NGF). […] An up-regulation of TRPM8 receptors in inflammatory bronchopulmonary tissues will make animals more susceptible to cold.

Data set [3] deals with vagus ganglion neurons (VGNs). The data set is described as follows: Ca2+ imaging (Fluo-3) of acutely dissociated vagus ganglion neurons. In kind it is cell-based, rat. The protocol:
In one embodiment, retrograde labeling of vagus ganglions or bronchopulmonary tissues is performed on a murine or rat model. […] Instillation of the nerve tracing dye in the lower part of mice trachea was performed and, after 7 days, the mice (or rats) were sacrificed and the vagus ganglions were harvested, dissociated, and plated in dishes. Calcium-imaging approach was then used to identify bronchopulmonary vagus afferent neuron response to cold and menthol. […] All the data were represented as mean ±SEM. Paired-t tests were used for statistical comparison, and significance was considered at the p<0.05. To perform calcium imaging, VGNs were incubated with 2 μM Fluo3-AM in 20% pluronic acid (Molecular Probes, Eugene, Oreg.) for 30 min at 37° C. to load Ca^2+ indicator. The cells were then perfused with normal bath solution flowing at 1 ml/min in a 0.5 ml chamber. The normal bath solution contained (in mM): 150 NaCl, 5 KCl, 2 MgCl2, 2 CaCl2, 10 glucose, 10 HEPES, pH 7.2, osmolarity adjusted to 320 mOsm with sucrose. Fluo-3 fluorescence in the cells was detected using a peltier-cooled charge-coupled device (CCD) camera (PentaMAX-III System, Roper Scientific, Trenton, N.J.) under a fluorescent microscope (10× objective). Excitation was at 450 nm and emission at 550 nm, achieved by a fluorescence filter sets. Images were taken at one frame per second, and digitized using MetaFluor software (Universal Imaging Corporation). Unless otherwise indicated, all experiments were carried out at an ambient temperature of 26° C. Effects of cold on intracellular Ca^2+ levels were tested by application of a cold bath solution, which yield temperature drop from 26° C. to 19° C. within 1 min in the recording chamber. […] In a related embodiment, Adult Sprague-Dawley rats (200 to 300 g, n=48) were used according to the Institutional Animal Care and Use Committee guideline of the University of Florida. The rats were continuously anesthetized with isoflurane using an anaesthetizing machine. To retrograde label the vagus ganglion neurons that innervate low airway tissues, a 20 μl-DiI was instilled into the caudal region of the trachea in living adult rats (see FIG. 1a, which illustrates the instillation of DiI into the lower segment of rat trachea to retrograde label airway VGNs). The animals were positioned supine during dye instillation and kept the same position for 30 min before recovery from anesthesia. […] The neurons were plated on glass coverslips previously covered with PDL and used within 4 hours after plating.

Data set [4] relates to vagus ganglion neurons (VGNs). The data set is described as follows: Whole-cell patch-clamp recordings (voltage-clamp and current-clamp) on menthol-responsive VGNs. In kind it is cell-based, rat. For orientation: In patch-clamp work, channel activity is measured electrically.
The subject of data set [5] is rats. The data set is described as follows: Inhalation of menthol, respiratory reaction. In kind it is in vivo, rat.

T1 sequence (Q8R455 whole entry): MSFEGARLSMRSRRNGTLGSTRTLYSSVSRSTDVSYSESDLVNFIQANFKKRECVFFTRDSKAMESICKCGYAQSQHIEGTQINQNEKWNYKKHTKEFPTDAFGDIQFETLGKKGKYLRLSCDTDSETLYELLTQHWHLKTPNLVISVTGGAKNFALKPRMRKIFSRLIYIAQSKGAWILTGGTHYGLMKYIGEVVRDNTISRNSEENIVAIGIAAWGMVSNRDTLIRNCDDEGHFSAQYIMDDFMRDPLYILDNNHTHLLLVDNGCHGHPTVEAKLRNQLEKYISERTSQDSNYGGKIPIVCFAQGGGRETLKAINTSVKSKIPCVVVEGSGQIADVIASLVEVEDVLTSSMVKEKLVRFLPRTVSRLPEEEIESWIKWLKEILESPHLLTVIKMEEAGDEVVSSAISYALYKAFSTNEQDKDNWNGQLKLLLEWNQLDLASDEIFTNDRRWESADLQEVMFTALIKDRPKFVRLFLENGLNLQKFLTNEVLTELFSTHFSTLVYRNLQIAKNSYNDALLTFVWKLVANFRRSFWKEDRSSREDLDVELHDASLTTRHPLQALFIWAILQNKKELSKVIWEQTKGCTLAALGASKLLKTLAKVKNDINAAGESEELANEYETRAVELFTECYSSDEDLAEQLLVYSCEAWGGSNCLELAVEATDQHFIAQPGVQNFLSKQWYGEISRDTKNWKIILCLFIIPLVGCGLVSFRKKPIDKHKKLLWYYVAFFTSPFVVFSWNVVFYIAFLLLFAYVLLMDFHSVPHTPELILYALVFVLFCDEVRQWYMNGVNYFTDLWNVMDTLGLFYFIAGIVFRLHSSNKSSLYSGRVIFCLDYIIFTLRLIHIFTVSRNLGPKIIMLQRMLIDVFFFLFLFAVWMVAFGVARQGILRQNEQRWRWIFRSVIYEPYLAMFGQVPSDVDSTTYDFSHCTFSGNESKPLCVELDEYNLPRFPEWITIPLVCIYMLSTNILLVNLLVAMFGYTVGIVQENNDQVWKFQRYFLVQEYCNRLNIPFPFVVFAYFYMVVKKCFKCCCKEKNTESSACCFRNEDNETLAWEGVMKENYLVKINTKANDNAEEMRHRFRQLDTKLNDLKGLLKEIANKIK

As for `CC(C)(C)c1ccc(NC(=S)N2CCN(c3ncccc3Cl)CC2)cc1` [thio-BCTC], the IC50 in data set [1] was 3.5 ± 1.1 µM.
Consider `NCCOB(c1ccccc1)c1ccccc1` [2-APB, 2-aminoethoxydiphenyl borate], for which the IC50 in data set [1] is about 50 µM.
Consider `Oc1cc2c(cc1O)CN(C(=S)NCCc1ccc(Cl)cc1)CCC2` [capsazepine], for which the IC50 in data set [1] is 18 ± 1.1 µM.
For the compound NGF: nerve growth factor, the TRPM8 receptor expression result in data set [2] is “up-regulated”.
For `Nc1ncnc2c1ncn2[C@@H]1O[C@H](COP(=O)(O)OP(=O)(O)OP(=O)(O)O)[C@@H](O)[C@H]1O` [ATP], in data set [3] (Ca2+ imaging, menthol and ATP responses), the “ATP sensitivity of menthol-responsive VGNs” value is reported as “almost all menthol-responsive VGNs were ATP-sensitive”.
For the compound `CC1CCC(C(C)C)C(O)C1` (stereo not shown) [menthol], in data set [3] (27 of 170 DiI-labeled cells, menthol 100 μM, cold 26 to 19° C.), the “DiI-labeled cells both menthol- and cold-responsive” value stood at 16%. For the same compound, the “DiI-labeled cells showing response to menthol” value in data set [3] (menthol 100 μM, 20 s, 28 of 170 DiI-labeled cells) amounted to 17%. Also, the “VGNs with increases of intracellular Ca2+” value in data set [3] (menthol 100 μM, 20 s, 116/1638 cells, DiI-labeled and non-labeled, response ΔF/F0 >0.1) is reported as 7%. Besides, in data set [4] (menthol 100 μM, 20 s, current-clamp, from resting potential 60±0.6 mV, n=4), the “membrane potential after depolarization by menthol” value worked out at 38±1.5 mV. In data set [4] (menthol 100 μM, 20 s, voltage-clamp, held at −70 mV, n=7), the menthol-evoked inward current was determined as 191±29 pA. For the same compound, the action potential firing entry in data set [4] (menthol 100 μM, current-clamp) is given as “action potentials elicited”; in data set [4] (menthol 100 μM, current-clamp, listed as Menthol), “caused action potential firing”. The “reversal potential of menthol-evoked currents” value in data set [4] (voltage ramp, strong outward rectification, n=4) is −2±0.3 mV. Moreover, the “respiratory reaction on inhalation” value in data set [5] (menthol 1 μM) is “respiratory reaction is not obvious”; in data set [5] (menthol 1 mM, n=3), “results in a breathing difficulty”.
For the compound `CC(C)(C)c1ccc(NC(=O)N2CCN(c3ncccc3Cl)CC2)cc1` [BCTC, N-(4-Tertiarybutylphenyl)-4-(3-cholorphyridin-2-yl)tetrahydropyrazine-1(2H)-carbox-amide], the IC50 in data set [1] was 0.8 ± 1 µM.

By IC50 is commonly meant the concentration at which inhibition is half-maximal.
